Test results published in patent publication US9163003B2, “4-piperidinyl compounds for use as tankyrase inhibitors” (NOVARTIS AG, priority 2011, dated 2015).
Like-named read-outs stand apart in the source and are kept apart here.

Legend:
Human PARP1 = Human PARP1 (Homo sapiens (Human), UniProt P09874); test: PARP1 autoparsylation biochemical assay, LC/MS detection of nicotinamide; details: read-out: PARP1 IC50, 20 nM enzyme, 250 μM NAD+, 60 min room temperature
[1] = test system: Non-small lung cancer ABC-1 cells; test: Cellular proliferation assay, ABC-1 cells (CellTiter-Glo); type: cell-based; details: 3 days of compound treatment
Description: Non-small lung cancer ABC-1 cells were plated at 5000 cells per well in 96-well plates and treated with 8 serial compound dilutions starting from 10 μM as the highest concentration. Viable cells were measured after 3 days of compound treatment using the CellTiter-Glo assay (Promega, G7570). Assay was performed following the manufacture protocol.

Axin2 protein = test: Cellular ELISA assay for stabilizing the Axin2 protein in SW480 cells; type: cell-based; details: 24 hrs treatment, read-out: Axin AC50
Description: Compound activity in stabilizing the Axin2 protein was measured by Sandwich Enzyme-Linked Immuosorbent (ELISA) assay in the colorectal cell line SW480. 30,000 SW480 cells were seeded per well in 96-well plate and incubated overnight prior to compound treatment. Cells were then treated with compounds in 6-point dilution starting at 10 μM for 24 hrs. Cells were then washed with 100 μL of cold Phosphate Buffer Saline (PBS), and lysed in 125 μl of cold 1× lysis buffer (Cell Signaling Technology, 9803) supplemented with Protease inhibitor (Roche, 11836170) and Phosphatase inhibitors (Sigma, P2850, P5726). For the ELISA assay, anti Axin-2 capture antibody (Strategic Diagnostics) antibody was diluted to a concentration of 1 μg/ml (1:1000) in Carbonate Coating buffer, pH 9.2 (Sigma, C3041-50CAP). 100μ of the diluted anti Axin-2 capture antibody per well was then used to coat the 96-well ELISA plate (Thermo Electron Corp., MicroLite 1 flat bottom plate #7571) overnight at 4° C. Plates were then washed three times with 300 μl/well of wash solution, PBST20 (PBS+0.05% Tween), and blocked with 300 μl/well 1% BSA/PBS (BSA, Millipore Probumin #82-045-1) for 1.5 hours at room temperature while shaking gently. After blocking, plates were then washed three times with 300 μl/well of wash solution. 100 μL of prepared SW480 cell lysate was then added to each well and incubated at room temperature for 2 hours while shaking gently. After washing, 100 μL of Biotinylated anti-Axin2 antibody (CST, 2151) was added to each well and incubated room temperature for 2 hours. 100 μL of Streptavidin-HRP (R&D systems, DY998) diluted 1:200 in 1% BSA/PBS was then added in each well and incubate for 30 mins at R/T in the dark. Signal was detected by Chemiluminescence (Pierce SuperSignal ELISA Femto #3704), and measured on PerkinElmer Wallac 1420 plate reader.

[2] = biological target: human tankyrase 1 PARP catalytic domain, TNKS1P (GST-tagged) (Homo sapiens (Human), UniProt O95271); test: TNKS1 autoparsylation (AP) biochemical assay, LC/MS detection of nicotinamide; details: 20 nM enzyme, 250 μM NAD+, 60 min room temperature
Description: The human tankyrase 1 PARP catalytic domain, TNKS1P, was cloned into a pDONR221 vector using the Invitrogen Gateway Technology. This entry clone was then subcloned into the destination vector pDEST20 to obtain the N-terminal Glutathione S-transferase (GST)-tagged fusion protein.
The autoparsylation activity of the TNKS 1/2 or PARP1/2 enzymes was measured by the liquid chromatography-mass spectrometry (LC/MS) detection of nicotinamide as readout. Compound activity in inhibiting the TNKS and PARP autoparsylation was evaluated by IC50 measurements.

PARP2 = PARP2 (Mus musculus (Mouse), UniProt O88554); test: PARP2 autoparsylation biochemical assay, LC/MS detection of nicotinamide; details: read-out: PARP2 Ic50, 20 nM enzyme, 250 μM NAD+, 60 min room temperature
[3] = biological target: tankyrase 2 protein PARP domain, TNKS2P (GST-tagged) (Homo sapiens (Human), UniProt Q9H2K2); test: TNKS2 autoparsylation (AP) biochemical assay, LC/MS detection of nicotinamide; details: 20 nM enzyme, 250 μM NAD+, 60 min room temperature
[4] = test system: Wnt ligand-induced signaling; test: Wnt-responsive Super-TOpFlash (STF) luciferase reporter gene assay in HEK293 cells; type: cell-based; details: Homo sapiens, Wnt3A condition medium induced
Description: Compound activity in inhibiting Wnt ligand-induced signaling was measured using a Wnt-responsive Super-TOpFlash (STF) luciferase reporter gene assay in HEK293 cells. On day 1 of the assay, cells were plated at a density of 8000 cells per well of 384-well plate in 25 μl medium containing 5% fetal bovine serum (FBS). On the second day, […] condition medium (CM) produced from mouse L cells was added to the cells to induce Wnt signaling, followed by addition of 5 μL of compounds each well in 10-point serial dilution. On the third day, the luciferase activity was measured by the Bright-Glo™ Luciferase Assay System following manufacture's protocol (Promega, E2620). The Inhibition was calculated as: (Maximum Wnt-induced signaling−Sample)/(Maximum Wnt-induced signaling−Background)*100. “Maximum Wnt-induced signaling” is the STF signal level induced by 20% Wnt3A CM without compound; and “Background” is the STF signal level without the addition of Wnt3A CM or compound.

Chain of Human PARP1 (P09874 whole entry): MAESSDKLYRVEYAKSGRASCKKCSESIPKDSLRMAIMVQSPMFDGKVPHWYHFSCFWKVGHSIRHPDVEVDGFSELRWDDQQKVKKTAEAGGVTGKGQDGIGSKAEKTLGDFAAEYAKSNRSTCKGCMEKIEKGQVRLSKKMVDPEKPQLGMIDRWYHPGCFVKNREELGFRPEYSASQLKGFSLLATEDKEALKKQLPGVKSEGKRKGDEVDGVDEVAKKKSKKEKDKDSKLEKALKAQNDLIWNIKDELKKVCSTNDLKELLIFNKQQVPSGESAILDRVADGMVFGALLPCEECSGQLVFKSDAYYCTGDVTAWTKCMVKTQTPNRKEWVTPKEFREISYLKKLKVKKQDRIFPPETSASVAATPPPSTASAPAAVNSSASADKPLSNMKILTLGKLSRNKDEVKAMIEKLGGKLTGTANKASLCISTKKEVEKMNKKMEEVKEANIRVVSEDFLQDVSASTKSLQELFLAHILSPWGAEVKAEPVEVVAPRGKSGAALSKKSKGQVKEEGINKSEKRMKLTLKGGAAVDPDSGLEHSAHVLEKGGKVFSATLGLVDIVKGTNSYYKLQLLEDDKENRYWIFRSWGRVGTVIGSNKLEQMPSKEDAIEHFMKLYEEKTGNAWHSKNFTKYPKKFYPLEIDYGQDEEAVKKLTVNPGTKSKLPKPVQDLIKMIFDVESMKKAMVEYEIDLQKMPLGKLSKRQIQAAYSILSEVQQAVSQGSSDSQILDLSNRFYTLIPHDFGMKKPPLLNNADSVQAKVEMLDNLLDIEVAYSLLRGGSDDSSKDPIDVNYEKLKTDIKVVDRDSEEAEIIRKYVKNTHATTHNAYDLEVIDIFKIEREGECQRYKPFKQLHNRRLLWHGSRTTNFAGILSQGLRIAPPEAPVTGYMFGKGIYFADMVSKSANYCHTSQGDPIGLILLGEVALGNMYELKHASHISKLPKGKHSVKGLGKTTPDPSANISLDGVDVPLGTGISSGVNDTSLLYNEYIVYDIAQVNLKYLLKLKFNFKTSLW
Chain of PARP2 (O88554 whole entry, the tested form may be a part): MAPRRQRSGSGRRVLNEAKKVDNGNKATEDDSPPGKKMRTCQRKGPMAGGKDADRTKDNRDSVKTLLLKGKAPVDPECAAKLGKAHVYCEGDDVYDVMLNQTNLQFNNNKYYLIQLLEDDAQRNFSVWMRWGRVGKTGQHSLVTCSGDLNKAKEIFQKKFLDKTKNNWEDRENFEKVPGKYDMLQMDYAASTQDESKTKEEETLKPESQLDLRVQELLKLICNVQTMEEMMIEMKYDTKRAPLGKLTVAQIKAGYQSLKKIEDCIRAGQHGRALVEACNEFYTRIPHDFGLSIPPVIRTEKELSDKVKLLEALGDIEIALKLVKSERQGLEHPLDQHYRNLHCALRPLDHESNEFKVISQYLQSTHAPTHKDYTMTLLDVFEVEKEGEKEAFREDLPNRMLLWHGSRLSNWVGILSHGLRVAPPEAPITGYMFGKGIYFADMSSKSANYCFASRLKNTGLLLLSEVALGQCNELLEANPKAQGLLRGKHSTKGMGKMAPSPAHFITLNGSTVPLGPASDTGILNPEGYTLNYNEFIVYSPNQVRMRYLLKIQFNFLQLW
Chain of tankyrase 2 protein PARP domain, TNKS2P (GST-tagged) (Q9H2K2 959-1164): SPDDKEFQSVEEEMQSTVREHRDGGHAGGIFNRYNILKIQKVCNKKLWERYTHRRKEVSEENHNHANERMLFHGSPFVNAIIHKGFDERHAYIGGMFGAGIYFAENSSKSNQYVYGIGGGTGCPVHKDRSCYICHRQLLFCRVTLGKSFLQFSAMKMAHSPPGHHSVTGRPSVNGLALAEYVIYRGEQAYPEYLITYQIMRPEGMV
Chain of human tankyrase 1 PARP catalytic domain, TNKS1P (GST-tagged) (O95271 1112-1317): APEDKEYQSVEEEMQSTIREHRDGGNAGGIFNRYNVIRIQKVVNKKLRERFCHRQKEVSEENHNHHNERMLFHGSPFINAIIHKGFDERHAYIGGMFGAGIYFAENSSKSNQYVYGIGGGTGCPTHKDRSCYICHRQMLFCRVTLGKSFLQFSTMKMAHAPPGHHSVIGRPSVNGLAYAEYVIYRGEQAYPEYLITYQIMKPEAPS

SMILES | IC50 (Human PARP1) [nM] | IC50 [1] [nM] | AC50 (Axin2 protein) [nM] | IC50 [2] [nM] | IC50 (PARP2) [nM] | IC50 ([1]; Homo sapiens, 72 h) [nM] | IC50 [3] [nM] | AC50 (Axin2 protein; Homo sapiens) [nM] | IC50 [4] [nM]
COc1ccc(C(=O)C2CCN([C@@H]3CCN(CC(=O)Nc4nnc5n4CCS5)C3=O)CC2)cc1 (single isomer, unassigned) [Example 34] | > 19000 | 49 | 78 ± 6 | 38 ± 1 | 6300 ± 700 |  |  |  | 
COc1ccc(C(=O)C2CCN(C3CCN(Cc4nc5c(c(=O)[nH]4)COCC5)C3=O)CC2)cc1 (stereo not drawn) [Example 2, 2-{3-[4-(4-Methoxy-benzoyl)-piperidin-1-yl]-2-oxo-pyrrolidin-1-ylmethyl}-3,5,7,8-tetrahydro-pyrano[4,3-d]pyrimidin-4-one] | 9300 ± 1800 |  |  | 33 ± 7 | 5400 ± 400 | 30 ± 5 | 15 ± 4 | 31.3 ± 3.6 | 1.3 ± 0.8
COc1ccc(C(=O)C2CCN([C@H]3CCN(Cc4nc5c(c(=O)[nH]4)COCC5)C3=O)CC2)cc1 [Example 3, 2-{(S)-3-[4-(4-Methoxy-benzoyl)-piperidin-1-yl]-2-oxo-pyrrolidin-1-ylmethyl}-3,5,7,8-tetrahydro-pyrano[4,3-d]pyrimidin-4-one] | 21000 ± 8700 |  |  | 12.8 ± 2.6 | 4800 ± 600 | 12 ± 3 | 9.5 ± 0.7 | 6.3 ± 1.3 | 1.1 ± 0.4
COc1ccc(C(=O)C2CCN(C3CCN(Cc4ccc(Cl)c(C#N)c4)C3=O)CC2)cc1 (stereo not drawn) [Example 5, 2-Chloro-5-((3-(4-(4-methoxybenzoyl)piperidin-1-yl)-2-oxopyrrolidin-1-yl)methyl)benzonitrile] |  |  |  | 36 ± 1 |  | 156 | 15 ± 1 | 66 ± 1 | 17 ± 3
COc1ccc(C(=O)C2CCN(C3CCN(Cc4nc5c(cnn5C)c(=O)[nH]4)C3=O)CC2)cc1 (stereo not drawn) [Example 6, 6-{3-[4-(4-Methoxy-benzoyl)-piperidin-1-yl]-2-oxo-pyrrolidin-1-ylmethyl}-1-methyl-1,3a,5,7a-tetrahydro-pyrazolo[3,4-d]pyrimidin-4-one] | > 19000 |  |  | 22 ± 4 | > 19000 | 43 | 25 ± 4 | 23 ± 3 | 5.9 ± 1.5
COc1ccc(C(=O)C2CCN(C3CCN(Cc4nc5ccsc5c(=O)[nH]4)C3=O)CC2)cc1 (stereo not drawn) [Example 7] |  |  |  | 211 ± 63 |  | 1470 | 83 ± 5 | 451 ± 68 | 54 ± 12
COc1ccc(C(=O)C2CCN(C3CCN(Cc4nc5sc(C)cc5c(=O)[nH]4)C3=O)CC2)cc1 (stereo not drawn) [Example 8] |  |  |  | 96 ± 28 |  | 133 | 141 ± 40 | 78 ± 13 | 18 ± 4
O=C(c1ccc(Cl)cc1)C1CCN(C2CCN(Cc3nc4c(c(=O)[nH]3)COCC4)C2=O)CC1 (stereo not drawn) [Example 9, 2-{3-[4-(4-Chloro-benzoyl)-piperidin-1-yl]-2-oxo-pyrrolidin-1-ylmethyl}-3,5,7,8-tetrahydro-pyrano[4,3-d]pyrimidin-4-one] | 16600 ± 4200 |  |  | 30 ± 2 | 4620 ± 950 | 60 | 23 ± 1 | 52 ± 4 | 3 ± 3
